Where a name gives a salt, the structure may show the parent alone. Read-outs that look alike come from different tables or passages of the source.
Key:
[1] = laser diffraction; for Size of crystals, 10% < / Size of crystals, 50% < / Size of crystals, 90% < / Size of crystals, Mean: quetiapine conc. 20 w-%, ethanol-water 80 w-% (Example 5), 85 w-% (Example 6)
Protocol: In examples 5 and 6 the crystal size analysis was performed using laser diffraction analyser (light scattering). Volume cell was 15 ml, optical length 0.6 cm, obscuration about 8 to 12%. Methyl siloxane was used as a dispersant.

Size of crystals, 10% < [1]	Size of crystals, 50% < [1]	Size of crystals, 90% < [1]	Size of crystals, Mean [1]	90% of the crystals below ([1]; water content of crystallization solvent between 15 to 20 w-%)	size of crystals (ratio of alcohol to water 77:22)	size of crystals (ratio of alcohol to water 91:9)	Compound
10% < 25 μm	50% < 83 μm	90% < 244 μm	Mean: 108 μm				OCCOCCN1CCN(C2=Nc3ccccc3Sc3ccccc32)CC1 [Example 5, quetiapine hemifumarate]
10% < 14 μm	50% < 44 μm	90% < 148 μm	Mean: 60 μm				OCCOCCN1CCN(C2=Nc3ccccc3Sc3ccccc32)CC1 [Example 6, quetiapine hemifumarate]
				below 244 μm	50-100 microns	10-20 microns	OCCOCCN1CCN(C2=Nc3ccccc3Sc3ccccc32)CC1 [quetiapine hemifumarate, 11-(4-[2-(2-hydroxyethoxy)ethyl]-1-piperazinyl]dibenzo[b,f]-1,4-thiazepine hemifumarate (2:1) salt]

— US8044038B2 (Fermion Oy, priority 2005, dated 2011)
